Consider 14 compounds from patent publication US11225492B2, “Heterocycles useful as anti-cancer agents” (Hangzhou Innogate Pharma Co., Ltd., priority 2015, dated 2022).

What all share (assay type): biochemical
One experiment has as its target CDK4/CycD3 (Homo sapiens (Human), UniProt P11802). Put plainly: CDK4/CycD3 kinase Mobility Shift Assay. The method, then:
(§1) 1. CDK2, CDK4 and CDK6 Kinase Assays:
(§2) CDK2/CycA2 and CDK6/cycD3 were assayed under buffer conditions in the presence of 50 mM HEPES (pH 7.5), 10 mM MgCl2, 0.0015% Brij-35, and 2 mM dithiothreitol, CDK4/CycD3 with buffer condition of 20 mM HEPES (pH 7.5), 10 mM MgCl2, 0.01% Triton X-100, and 2 mM dithiothreitol. Prepare compounds to 50× of the final desired highest inhibitor concentration by 100% DMSO and serial dilution in 3-fold for total of 10 concentrations. […] After assay for 60 min, 180 min, 60 min respectively at 28° C., reactions were terminated with stop solution (50 mM EDTA, 0.015% Brij-35, 0.2% Coating Reagent #3 and 100 mM HEPES (pH 7.5)). Collect conversion on Caliper EZ Reader. IC50 values were calculated by fitting the dose-response curves with Xlfit excel add-in version 4.3.1.

The next experiment addresses CDK6/cycD3 (Homo sapiens (Human), UniProt Q00534). Description: CDK6/cycD3 kinase Mobility Shift Assay. As to conditions: CDK6/cycD3 15 nM, ATP Km 800 μM, 60 min, 28° C. The method, then:
as §1, §2

For another experiment, the target named is CDK2/CycA2 (Homo sapiens (Human), UniProt P24941). Put plainly: CDK2/CycA2 kinase Mobility Shift Assay. As to conditions: CDK2/CycA2 12 nM, ATP Km 39 μM, 60 min, 28° C. The method, then:
as §1, §2

The next experiment has as its target HDAC-6 (Homo sapiens (Human), UniProt Q9UBN7). Description: HDAC-6 fluorogenic deacetylase assay. The note with it: recombinant, full-length protein, Ac-peptide-AMC substrate; read-out: HDAC6 (IC50). The method, then: (§3) 2. HDAC-1, HDAC-2 and HDAC-6 Assays:
(§4) The inhibitory effect of compounds on HDAC-1, HDAC-2 and HDAC-6 function was determined in vitro using an optimized homogenous assay performed in 384-well plate format. In this assay, recombinant, full-length HDAC-1, HDAC-2 or HDAC-6 protein (BPS Biosciences) was incubated with Ac-peptide-AMC with concentration in Km plot. Reactions were performed in Tris-based assay buffer and followed for fluorogenic release of 7-amino-4-methylcoumarin from substrate upon deacetylase and trypsin enzymatic activity. Fluorescence measurements were obtained using a multilabel plate reader (Synergy MX with excitation at 355 nm and emission at 460 nm). Data were analyzed on a plate-by-plate basis for the linear range of fluorescence over time. Fit the data in GraphPad Prism V5.0 software to obtain IC50 values using equation (Y=Bottom+(Top−Bottom)/(1+10^((Log IC50−X)*Hill Slope), Y is % inhibition and X is compound concentration).

The target of the next experiment is HDAC-1 (Homo sapiens (Human), UniProt Q13547). Put plainly: HDAC-1 fluorogenic deacetylase assay. As to conditions: recombinant, full-length protein, Ac-peptide-AMC substrate; read-out: HDAC1 (IC50). The method, then: as §3, §4
HDAC-1, sequence (Q13547 whole entry): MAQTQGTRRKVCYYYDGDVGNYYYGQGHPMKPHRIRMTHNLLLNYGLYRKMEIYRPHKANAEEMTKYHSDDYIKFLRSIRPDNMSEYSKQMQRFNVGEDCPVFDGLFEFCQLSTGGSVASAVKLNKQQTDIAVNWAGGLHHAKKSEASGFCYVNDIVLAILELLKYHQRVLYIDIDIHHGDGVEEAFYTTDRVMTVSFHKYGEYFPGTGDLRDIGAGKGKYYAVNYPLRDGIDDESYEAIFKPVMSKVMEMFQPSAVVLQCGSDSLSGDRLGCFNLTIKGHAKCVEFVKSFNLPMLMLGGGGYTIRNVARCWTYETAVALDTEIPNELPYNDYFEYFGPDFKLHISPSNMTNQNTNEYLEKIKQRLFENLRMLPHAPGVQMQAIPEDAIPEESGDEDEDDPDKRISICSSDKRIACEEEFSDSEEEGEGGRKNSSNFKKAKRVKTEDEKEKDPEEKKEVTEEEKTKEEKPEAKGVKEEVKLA
Where [1] appears, read: CDK4/CycD3 10 nM, ATP Km 221 μM, 180 min, 28° C.

Like-named read-outs stand apart in the source and are kept apart here. Some results are limits rather than exact numbers.

CDK4/CycD3, sequence (P11802 whole entry, species assumed): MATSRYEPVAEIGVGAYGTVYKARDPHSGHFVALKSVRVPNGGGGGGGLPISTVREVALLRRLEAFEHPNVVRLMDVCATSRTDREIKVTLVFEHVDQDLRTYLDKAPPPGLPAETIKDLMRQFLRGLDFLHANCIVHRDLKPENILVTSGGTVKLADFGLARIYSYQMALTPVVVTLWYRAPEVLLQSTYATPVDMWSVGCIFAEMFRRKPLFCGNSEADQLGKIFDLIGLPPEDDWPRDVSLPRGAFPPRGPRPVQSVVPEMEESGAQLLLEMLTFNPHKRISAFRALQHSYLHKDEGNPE
CDK4/CycD3, sequence (P30281 whole entry partner, species assumed): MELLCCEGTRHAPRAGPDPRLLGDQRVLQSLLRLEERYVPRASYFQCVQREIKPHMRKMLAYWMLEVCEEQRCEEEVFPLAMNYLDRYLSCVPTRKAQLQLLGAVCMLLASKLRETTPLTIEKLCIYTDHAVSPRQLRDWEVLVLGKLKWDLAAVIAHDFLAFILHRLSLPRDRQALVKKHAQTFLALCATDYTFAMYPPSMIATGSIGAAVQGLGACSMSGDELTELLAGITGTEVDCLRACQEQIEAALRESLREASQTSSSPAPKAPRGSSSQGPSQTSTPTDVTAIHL
HDAC-6, sequence (Q9UBN7 whole entry): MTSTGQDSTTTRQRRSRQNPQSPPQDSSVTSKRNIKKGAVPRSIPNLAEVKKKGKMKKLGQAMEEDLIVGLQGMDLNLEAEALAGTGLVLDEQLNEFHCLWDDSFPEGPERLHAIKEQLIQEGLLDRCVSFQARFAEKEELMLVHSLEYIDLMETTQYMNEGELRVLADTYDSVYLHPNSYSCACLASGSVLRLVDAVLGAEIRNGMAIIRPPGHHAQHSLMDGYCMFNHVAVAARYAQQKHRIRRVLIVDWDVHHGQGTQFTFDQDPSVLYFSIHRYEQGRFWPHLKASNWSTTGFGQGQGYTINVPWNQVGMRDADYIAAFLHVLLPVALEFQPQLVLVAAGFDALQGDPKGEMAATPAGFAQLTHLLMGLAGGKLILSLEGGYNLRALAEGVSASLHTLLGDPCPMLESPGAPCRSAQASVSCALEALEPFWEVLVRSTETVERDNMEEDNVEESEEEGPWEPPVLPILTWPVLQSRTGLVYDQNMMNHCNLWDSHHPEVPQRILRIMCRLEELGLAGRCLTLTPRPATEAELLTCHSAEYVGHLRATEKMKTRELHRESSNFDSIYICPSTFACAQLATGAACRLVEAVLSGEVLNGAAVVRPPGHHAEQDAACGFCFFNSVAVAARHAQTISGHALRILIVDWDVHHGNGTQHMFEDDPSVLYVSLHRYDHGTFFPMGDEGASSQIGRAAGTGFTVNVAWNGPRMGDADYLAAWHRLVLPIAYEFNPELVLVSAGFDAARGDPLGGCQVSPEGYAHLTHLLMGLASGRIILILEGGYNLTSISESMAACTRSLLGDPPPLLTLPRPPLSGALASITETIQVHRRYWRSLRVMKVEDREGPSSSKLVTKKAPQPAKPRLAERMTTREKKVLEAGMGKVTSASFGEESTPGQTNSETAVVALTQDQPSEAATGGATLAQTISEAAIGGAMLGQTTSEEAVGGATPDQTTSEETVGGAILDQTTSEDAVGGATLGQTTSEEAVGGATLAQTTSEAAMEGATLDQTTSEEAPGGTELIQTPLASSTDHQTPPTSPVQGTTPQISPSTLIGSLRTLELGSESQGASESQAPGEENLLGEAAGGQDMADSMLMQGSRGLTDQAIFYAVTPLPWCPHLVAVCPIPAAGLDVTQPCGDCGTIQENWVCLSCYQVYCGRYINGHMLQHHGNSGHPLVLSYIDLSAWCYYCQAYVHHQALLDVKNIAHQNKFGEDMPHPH
CDK6/cycD3, sequence (Q00534 whole entry, species assumed): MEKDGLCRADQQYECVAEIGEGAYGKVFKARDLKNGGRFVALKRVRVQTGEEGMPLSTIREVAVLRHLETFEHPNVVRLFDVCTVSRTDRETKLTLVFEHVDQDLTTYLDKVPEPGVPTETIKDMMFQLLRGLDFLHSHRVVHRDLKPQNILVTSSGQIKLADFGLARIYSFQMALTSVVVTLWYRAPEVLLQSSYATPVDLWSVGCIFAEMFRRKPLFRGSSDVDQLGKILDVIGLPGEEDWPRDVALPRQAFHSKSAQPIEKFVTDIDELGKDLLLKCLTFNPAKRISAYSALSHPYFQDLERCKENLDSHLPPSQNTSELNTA
CDK6/cycD3, sequence (P30281 whole entry partner, species assumed): as the sequence (P30281 whole entry partner, species assumed) above

Consider `CC(=O)c1c(C)c2cnc(Nc3ccc(N4CC5CNCC(C4)C5(F)F)cn3)nc2n(C2CCCC2)c1=O` (single isomer, unassigned) [Compound 4-1, 6-acetyl-8-cyclopentyl-2-(5-(9,9-difluoro-3,7-diazabicyclo[3.3.1]nonan-3-yl)pyridin-2-ylamino)-5-methylpyrido[2,3-d]pyrimidin-7(8H)-one], for which the IC50 on CDK4/CycD3 (setting [1]) is less than 25 nM; at CDK6/cycD3, less than 100 nM; at CDK2/CycA2, less than 1000 nM.
On the same counts, the results for `CC(=O)c1c(C)c2cnc(Nc3ccc(N4CC5CNCC(C5)C4)cn3)nc2n(C2CCCC2)c1=O` [Compound 1, 2-(5-(3,7-diazabicyclo[3.3.1]nonan-3-yl)pyridin-2-ylamino)-6-acetyl-8-cyclopentyl-5-methylpyrido[2,3-d]pyrimidin-7(8H)-one] are less than 10 nM, less than 25 nM and more than 5000 nM.
With `CC(=O)c1c(C)c2cnc(Nc3ccc(N4CC5CNCC(C4)O5)cn3)nc2n(C2CCCC2)c1=O` [Compound 2, 2-(5-(9-oxa-3,7-diazabicyclo[3.3.1]nonan-3-yl)pyridin-2-ylamino)-6-acetyl-8-cyclopentyl-5-methylpyrido[2,3-d]pyrimidin-7(8H)-one], the IC50 was less than 25 nM on CDK4/CycD3 (setting [1]), less than 100 nM at CDK6/cycD3 and more than 5000 nM at CDK2/CycA2.
On to `CC(=O)c1c(C)c2cnc(Nc3ccc(N4CCC5(CC4)CNC5)cn3)nc2n(C2CCCC2)c1=O` [Compound 3, 2-(5-(2,7-Diazaspiro[3.5]nonan-7-yl)pyridin-2-ylamino)-6-acetyl-8-cyclopentyl-5-methylpyrido[2,3-d]pyrimidin-7(8H)-one], for which the values for the IC50 on CDK4/CycD3 (setting [1]), on CDK6/cycD3 and at CDK2/CycA2 were less than 10 nM, less than 25 nM and more than 5000 nM, respectively.
On to `CC(=O)c1c(C)c2cnc(Nc3ccc(N4CC5CNCC(C4)C5(F)F)cn3)nc2n(C2CCCC2)c1=O` [Compound 4-2, 6-acetyl-8-cyclopentyl-2-(5-(9,9-difluoro-3,7-diazabicyclo[3.3.1]nonan-3-yl)pyridin-2-ylamino)-5-methylpyrido[2,3-d]pyrimidin-7(8H)-one], for which the IC50 at CDK4/CycD3 (setting [1]) is less than 50 nM; on CDK6/cycD3, less than 100 nM.
For `CC(=O)c1c(C)c2cnc(Nc3ccc(N4CCCC5(CCNCC5)C4)cn3)nc2n(C2CCCC2)c1=O` [Compound 6, 2-(5-(2,9-diazaspiro[5.5]undecan-2-yl)pyridin-2-ylamino)-6-acetyl-8-cyclopentyl-5-methylpyrido[2,3-d]pyrimidin-7(8H)-one], the IC50 on CDK4/CycD3 (setting [1]) was less than 10 nM; on CDK6/cycD3, less than 25 nM; on CDK2/CycA2, more than 5000 nM.
As to `CC(=O)c1c(C)c2cnc(Nc3ccc4c(n3)CCNC4)nc2n(C2CCCC2)c1=O` [Compound 8, 6-acetyl-8-cyclopentyl-5-methyl-2-(5,6,7,8-tetrahydro-1,6-naphthyridin-2-ylamino)pyrido[2,3-d]pyrimidin-7(8H)-one], the concentration for half-maximal inhibition (IC50) is less than 10 nM at CDK4/CycD3, less than 100 nM on CDK6/cycD3 and more than 1000 nM on CDK2/CycA2.
Regarding `CC(=O)c1c(C)c2cnc(Nc3ccc(N4CCN(C(=O)CCCCCCC(=O)NO)CC4)cn3)nc2n(C2CCCC2)c1=O` [Compound 12, 8-(4-(6-(6-acetyl-8-cyclopentyl-5-methyl-7-oxo-7,8-dihydropyrido[2,3-d]pyrimidin-2-ylamino)pyridin-3-yl)piperazin-1-yl)-N-hydroxy-8-oxooctanamide], the IC50 is less than 10 nM at CDK4/CycD3 (setting [1]); less than 25 nM on CDK6/cycD3; less than 10 nM on HDAC-6; less than 50 nM on HDAC-1; more than 10000 nM on CDK2/CycA2.
With `CC(=O)c1c(C)c2cnc(Nc3ccc(N4CCN(C(=O)CCCC(=O)NO)CC4)cn3)nc2n(C2CCCC2)c1=O` [Compound 13, 5-(4-(6-(6-acetyl-8-cyclopentyl-5-methyl-7-oxo-7,8-dihydropyrido[2,3-d]pyrimidin-2-ylamino)pyridin-3-yl)piperazin-1-yl)-N-hydroxy-5-oxopentanamide], the IC50 at CDK4/CycD3 (setting [1]) was less than 25 nM; at CDK6/cycD3 it was less than 50 nM; on CDK2/CycA2 it was more than 1000 nM.
Turning to `CC(=O)c1c(C)c2cnc(Nc3ccc(N4CCN(CCCCCCC(=O)NO)CC4)cn3)nc2n(C2CCCC2)c1=O` [Compound 14, 7-(4-(6-(6-acetyl-8-cyclopentyl-5-methyl-7-oxo-7,8-dihydropyrido[2,3-d]pyrimidin-2-ylamino)pyridin-3-yl)piperazin-1-yl)-N-hydroxyheptanamide], the 50% inhibitory concentration (IC50) at CDK4/CycD3 (setting [1]) was less than 10 nM; at CDK6/cycD3 it was less than 10 nM; on HDAC-6, less than 50 nM; at HDAC-1 it was less than 500 nM.
For the compound `CC(=O)c1c(C)c2cnc(Nc3ccc(N4CCN(CCCCCCCC(=O)NO)CC4)cn3)nc2n(C2CCCC2)c1=O` [Compound 15, 8-(4-(6-((6-acetyl-8-cyclopentyl-5-methyl-7-oxo-7,8-dihydropyrido[2,3-d]pyrimidin-2-yl)amino)pyridin-3-yl)piperazin-1-yl)-N-hydroxyoctanamide], the IC50 was less than 10 nM on CDK4/CycD3 (setting [1]); less than 25 nM at CDK6/cycD3; less than 50 nM at HDAC-6; less than 500 nM on HDAC-1; more than 1000 nM on CDK2/CycA2.
Turning to `CC(=O)c1c(C)c2cnc(Nc3ccc(N4CCN(Cc5ccc(C(=O)NO)cc5)CC4)cn3)nc2n(C2CCCC2)c1=O` [Compound 16, 4-((4-(6-((6-acetyl-8-cyclopentyl-5-methyl-7-oxo-7,8-dihydropyrido[2,3-d]pyrimidin-2-yl)amino)pyridin-3-yl)piperazin-1-yl)methyl)-N-hydroxybenzamide], the IC50 is less than 10 nM at CDK4/CycD3 (setting [1]); less than 50 nM at CDK6/cycD3; less than 10 nM at HDAC-6; less than 500 nM on HDAC-1; more than 1000 nM on CDK2/CycA2.
In the case of `CC(=O)c1c(C)c2cnc(Nc3ccc(C(=O)NO)cn3)nc2n(C2CCCC2)c1=O` [Compound 17, 6-((6-acetyl-8-cyclopentyl-5-methyl-7-oxo-7,8-dihydropyrido[2,3-d]pyrimidin-2-yl)amino)-N-hydroxynicotinamide], the IC50 is less than 50 nM at CDK4/CycD3 (setting [1]); less than 500 nM at CDK6/cycD3; less than 50 nM on HDAC-6; less than 500 nM on HDAC-1; more than 1000 nM at CDK2/CycA2.
`CC(=O)c1c(C)c2cnc(Nc3ccc(C(=O)NCCCCCCC(=O)NO)cn3)nc2n(C2CCCC2)c1=O` [Compound 18, 6-((6-acetyl-8-cyclopentyl-5-methyl-7-oxo-7,8-dihydropyrido[2,3-d]pyrimidin-2-yl)amino)-N-(7-(hydroxyamino)-7-oxoheptyl)nicotinamide]: the IC50 at CDK4/CycD3 (setting [1]) is less than 50 nM; on CDK6/cycD3 it was less than 1000 nM; at HDAC-6, less than 10 nM; at HDAC-1, less than 50 nM; on CDK2/CycA2, more than 1000 nM.
